Target: T1, human Ox2R (Homo sapiens, UniProt O43614)
T1 construct: The gene encoding hOx2R was subcloned into the expression plasmid pcDNA5/FRT/TO; expressed in transfected cells; host or cells: CHO Flp-In cells (pcDNA5/FRT/TO with pOG44 Flp recombinase vector, hygromycin B selection)
T1 sequence (O43614 1-444): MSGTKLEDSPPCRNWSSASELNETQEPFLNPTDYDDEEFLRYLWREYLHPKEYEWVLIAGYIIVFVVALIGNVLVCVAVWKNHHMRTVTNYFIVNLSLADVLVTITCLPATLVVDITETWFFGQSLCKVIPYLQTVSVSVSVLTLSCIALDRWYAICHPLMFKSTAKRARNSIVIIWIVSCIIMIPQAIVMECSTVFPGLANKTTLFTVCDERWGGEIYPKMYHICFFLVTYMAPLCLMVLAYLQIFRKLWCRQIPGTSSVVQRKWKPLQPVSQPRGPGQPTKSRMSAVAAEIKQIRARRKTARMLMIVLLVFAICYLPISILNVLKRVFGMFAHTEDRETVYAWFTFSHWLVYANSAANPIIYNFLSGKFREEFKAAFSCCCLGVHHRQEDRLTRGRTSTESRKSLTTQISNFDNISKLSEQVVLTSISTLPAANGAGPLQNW
Assay: Measurement of OX2R agonist activity (cell-based calcium release assay)
Settings: hOx2R-CHO Flp-In cells, n≥2 tests; for EC50: intracellular calcium, read-out: EC50; for Emax / Emax (%): normalized to assay buffer (0%) and 10 μM Danavorexton (100%); for Emax: read-out: Emax (%)
Summary of the method: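 CHO Flp-In cells stably expressing human Ox2R, dye-loaded 1 h at 37 °C in HBSS/20 mM HEPES pH 7.4 with 2.5 mM probenecid and 10 mM CaCl2, then stimulated with compound.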

Row | Molecule | EC50 [nM] | Emax [%] | Emax (%)
1 | CS(=O)(=O)N[C@H]1CC[C@@]2(Cc3ccc(C(F)F)c(c3)-c3cccc(F)c3OCc3coc2n3)C1 [Example 103, N-[(1′S,14R)-19-(difluoromethyl)-6-fluoro-spiro[8,12-dioxa-21-azatetracyclo[14.3.1.110,13.02,7]henicosa-1(19),2,4,6,10,13(21),16(20),17-octaene-14,3′-cyclopentane]-1′-yl]methanesulfonamide] | 3.3 | 99 | 
2 | CS(=O)(=O)N[C@H]1CC[C@@]2(Cc3cc(ncc3F)-c3cccc(F)c3OCc3coc2n3)C1 [Example 105, N-[(1′S,14R)-6,17-difluorospiro[8,12-dioxa-19,21-diazatetracyclo[14.3.1.110,13.02,7]henicosa-1(20),2,4,6,10,13(21),16,18-octaene-14,3′-cyclopentane]-1′-yl]methanesulfonamide] | 6.1 | 97 | 
3 | CS(=O)(=O)N[C@H]1CC[C@@]2(Cc3cc(c(F)cn3)-c3cccc(F)c3OCc3coc2n3)C1 [Example 106, N-[(1′S,14S)-6,19-difluorospiro[8,12-dioxa-17,21-diazatetracyclo[14.3.1.110,13.02,7]henicosa-1(20),2,4,6,10,13(21),16,18-octaene-14,3′-cyclopentane]-1′-yl]methanesulfonamide] | 26 | 98 | 
4 | CS(=O)(=O)N[C@@H]1CC[C@]2(Cc3cc(c(F)cc3F)-c3cccc(F)c3OCc3coc2n3)C1 [Example 107, N-[(1′R,14S)-6,17,19-trifluorospiro[8,12-dioxa-21-azatetracyclo[14.3.1.110,13.02,7]henicosa-1(19),2,4,6,10,13(21),16(20),17-octaene-14,3′-cyclopentane]-1′-yl]methanesulfonamide] | 2.6 | 100 | 
5 | CS(=O)(=O)N[C@H]1CC[C@]2(CC1)Cc1ccc(F)c(c1)-c1cccc(F)c1OCc1ccnc2n1 [Example 108, trans-N-(6,20-difluorospiro[8-oxa-13,22-diazatetracyclo[15.3.1.110,14.02,7]docosa-1(21),2,4,6,10,12,14(22),17,19-nonaene-15,4′-cyclohexane]-1′-yl)methanesulfonamide] | 0.45 | 98 | 
6 | CS(=O)(=O)N[C@H]1CC[C@@]2(Cc3cc(c(F)cc3F)-c3cccc(F)c3OCc3nc2ns3)C1 [Example 111, N-[(1′S,14R)-6,17,19-trifluorospiro[8-oxa-11-thia-12,21-diazatetracyclo[14.3.1.110,13.02,7]henicosa-1(19),2,4,6,10(21),12,16(20),17-octaene-14,3′-cyclopentane]-1′-yl]methanesulfonamide] | 0.98 | 96 | 
7 | CS(=O)(=O)N[C@H]1CC[C@@]2(Cc3ccc(F)c(c3)-c3cccc(F)c3OCc3noc2n3)C1 [Example 112, N-[(1′S,14R)-6,19-difluorospiro[8,12-dioxa-11,21-diazatetracyclo[14.3.1.110,13.02,7]henicosa-1(20),2,4,6,10,13(21),16,18-octaene-14,3′-cyclopentane]-1′-yl]methanesulfonamide] | 1.3 | 94 | 
8 | O=S(=O)(N[C@H]1CC[C@@]2(Cc3ccc(F)c(c3)-c3cccc(F)c3OCc3coc2n3)C1)C(F)(F)F [Example 114, N-[(1′S,14R)-6,19-difluorospiro[8,12-dioxa-21-azatetracyclo[14.3.1.110,13.02,7]henicosa-1(19),2(7),3,5,10,13(21),16(20),17-octaene-14,3′-cyclopentane]-1′-yl]-1,1,1-trifluoro-methanesulfonamide] | 0.19 | 110 | 
9 | O=S(=O)(N[C@H]1CC[C@@]2(Cc3ccc(F)c(c3)-c3cccc(F)c3OCc3coc2n3)C1)C(F)F [Example 115, N-[(1′S,14R)-6,19-difluorospiro[8,12-dioxa-21-azatetracyclo[14.3.1.110,13.02,7]henicosa-1(20),2,4,6,10,13(21),16,18-octaene-14,3′-cyclopentane]-1′-yl]-1,1-difluoro-methanesulfonamide] | 0.37 | 97 | 
10 | CS(=O)(=O)N[C@@H]1C[C@]2(Cc3ccc(F)c(c3)-c3cccc(F)c3OCc3ccnc2n3)[C@H]2C[C@@H]12 [Example 118, N-[(1′R,2′R,5′S,15R)-6,20-difluorospiro[8-oxa-13,22-diazatetracyclo[15.3.1.110,14.02,7]docosa-1(21),2,4,6,10,12,14(22),17,19-nonaene-15,4′-bicyclo[3.1.0]hexane]-2′-yl]methanesulfonamide] | 0.1 | 100 | 
11 | CS(=O)(=O)N[C@@H]1C[C@]2(Cc3ccc(F)c(c3)-c3cc(F)cc(F)c3OCc3ccnc2n3)[C@H]2C[C@@H]12 [Example 119, N-[(1′R,2′R,5′S,15R)-4,6,20-trifluorospiro[8-oxa-13,22-diazatetracyclo[15.3.1.110,14.02,7]docosa-1(21),2,4,6,10,12,14(22),17,19-nonaene-15,4′-bicyclo[3.1.0]hexane]-2′-yl]methanesulfonamide] | 0.52 | 96 | 
12 | N-[(1′S,4′S,15R)-6,20-difluoro-4′-methyl-spiro[8-oxa-13,22-diazatetracyclo[15.3.1.110,14.02,7]docosa-1(20),2,4,6,10,12,14(22),17(21),18-nonaene-15,3′-cyclopentane]-1′-yl]methanesulfonamide or N-[(1′R,4′R,15S)-6,20-difluoro-4′-methyl-spiro[8-oxa-13,22-diazatetracyclo[15.3.1.110,14.02,7]docosa-1(20),2,4,6,10,12,14(22),17(21),18-nonaene-15,3′-cyclopentane]-1′-yl]methanesulfonamide [Example 93] | 3.1 |  | 94
13 | N-[(3′R,14S)-6,17,19-trifluorospiro[8,12-dioxa-21-azatetracyclo[14.3.1.110,13.02,7]henicosa-1(19),2,4,6,10,13(21),16(20),17-octaene-1′,5′-tetrahydrofuran′-3′-yl]methanesulfonamide or N-[(3′S,14R)-6,17,19-trifluorospiro[8,12-dioxa-21-azatetracyclo[14.3.1.110,13.02,7]henicosa-1(19),2,4,6,10,13(21),16(20),17-octaene-1′,5′-tetrahydrofuran′-3′-yl]methanesulfonamide [Example 109] | 1.6 |  | 99
14 | N-[(3′R,14S)-6,17,19-trifluorospiro[8,12-dioxa-21-azatetracyclo[14.3.1.110,13.02,7]henicosa-1(19),2,4,6,10,13(21),16(20),17-octaene-1′,5′-tetrahydrofuran′-3′-yl]methanesulfonamide or N-[(3′S,14R)-6,17,19-trifluorospiro[8,12-dioxa-21-azatetracyclo[14.3.1.110,13.02,7]henicosa-1(19),2,4,6,10,13(21),16(20),17-octaene-1′,5′-tetrahydrofuran′-3′-yl]methanesulfonamide [Example 110] | 0.32 |  | 96
